Assay results published in patent publication US10077247B2, “Tricyclic spiro compound” (ONO PHARMACEUTICAL CO., LTD., priority 2015, dated 2018).

Legend:
[1] = Pharmacokinetics test (hepatic microsome stability test); details: human hepatic microsome 1 mg/mL, 37° C., 60 min, 1 μmol/L
[2] = target: rat EP4 receptor (Rattus norvegicus (Rat), UniProt P43114); assay: EP4 antagonistic activity measurement using prostanoid receptor subtype expressing cells (cAMP); type: cell-based; details: CHO cells expressing rat EP4 receptor; inhibition of cAMP production by PGE2 10 nM
Protocol: CHO cells expressing rat EP4 receptor subtypes were prepared according to the methods of Nishigaki et al. (FEBS Letters, Vol. 364, p. 339-341, 1995), and used for experiment. Cultured subconfluent cells were detached, and suspended in an assay medium (MEM containing 1 mmol/L IBMX, 1% HSA) in a concentration of 1×10^6 cells/mL. For reaction, PGE2 was added to the cell suspension (25 μL) in a final concentration of 10 nmol/L, either alone or as a 25-μL PGE2 solution containing the test compound. After 30 minutes of reaction at room temperature, the amount of cAMP in the cells was quantified according to the method in the descriptions of the cAMP assay kit (CISBIO).
The antagonistic effect (IC50 value) of the test compound was calculated as a value that represents an inhibition rate against a reaction with PGE2 alone at 10 nM, a concentration that produces a submaximal cAMP producing effect.

Sequence of rat EP4 receptor (P43114 whole entry): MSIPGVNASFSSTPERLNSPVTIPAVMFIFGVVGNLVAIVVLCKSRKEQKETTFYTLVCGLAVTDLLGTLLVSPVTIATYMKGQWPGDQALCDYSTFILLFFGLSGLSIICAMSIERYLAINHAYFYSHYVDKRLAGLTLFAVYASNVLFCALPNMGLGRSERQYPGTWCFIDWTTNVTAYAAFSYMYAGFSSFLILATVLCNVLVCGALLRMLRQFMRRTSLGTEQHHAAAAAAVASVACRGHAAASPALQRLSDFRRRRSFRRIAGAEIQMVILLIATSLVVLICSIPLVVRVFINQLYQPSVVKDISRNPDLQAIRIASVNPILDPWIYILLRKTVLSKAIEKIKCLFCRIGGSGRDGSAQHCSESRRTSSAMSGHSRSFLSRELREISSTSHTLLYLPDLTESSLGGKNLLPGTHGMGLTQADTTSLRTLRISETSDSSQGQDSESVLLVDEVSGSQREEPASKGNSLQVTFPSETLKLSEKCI

Remaining rate (%) [1] [%] | IC50 [2] [nM] | Compound
100 | 8.3 | CCOCCNC(=O)c1ccc2c(c1)[C@]1(CCO2)C[C@H]1C(=O)Nc1cc(C#N)ccc1CCCC(=O)O [Example 2-45, 4-{4-Cyano-2-[({(2′R,4S)-6-[(2-ethoxyethyl)carbamoyl]-2,3-dihydrospiro[chromene-4,1′-cycopropan]-2′-yl}carbonyl)amino]phenyl}butanoic acid]
100 | 9.5 | CC(C)NC(=O)c1cc2c(cc1F)OCC[C@]21C[C@H]1C(=O)Nc1cc(C#N)ccc1CCCC(=O)O [Example 20-5, 4-[4-Cyano-2-({[(2′R,4S)-7-fluoro-6-(isopropylcarbamoyl)-2,3-dihydrospiro[chromene-4, 1′-cyclopropan]-2′-yl]carbonyl}amino)phenyl]butanoic acid]
86 | 4.1 | N#Cc1ccc(CCCC(=O)O)c(NC(=O)[C@@H]2C[C@]23CCOc2ccc(-c4cccnn4)cc23)c1 [Example 10-5, 4-[4-Cyano-2-({[(2′R,4S)-6-(3-pyridazinyl)-2,3-dihydrospiro[chromene-4, 1′-cyclopropan]-2′-yl]carbonyl}amino)phenyl]butanoic acid]
78 | 5.7 | CC1(C)C[C@]2(C[C@H]2C(=O)Nc2cc(C#N)ccc2CCCC(=O)O)c2cc(-c3cccnc3)ccc21 [Example 39, 4-[4-Cyano-2-({[(1S,2R)-3′,3′-dimethyl-6′-(3-pyridinyl)-2′,3′-dihydrospiro[cyclopropane-1,1′-inden]-2-yl]carbonyl}amino)phenyl]butanoic acid]
82 | 6.1 | N#Cc1ccc(CCCC(=O)O)c(NC(=O)[C@@H]2C[C@]23CCOc2ccc(-c4ccc(F)nc4)cc23)c1 [Example 7-17, 4-[4-Cyano-2-({[(2′R,4S)-6-(6-fluoro-3-pyridinyl)-2,3-dihydrospiro[chromene-4, 1′-cyclopropan]-2′-yl]carbonyl}amino)phenyl]butanoic acid]
91 | 2.7 | Cn1cc(NC(=O)c2ccc3c(c2)[C@]2(CC3)C[C@H]2C(=O)Nc2cc(C#N)ccc2CCCC(=O)O)cn1 [Example 18-3, 4-{4-Cyano-2-[({(1R,2R)-6′-[(1-methyl-1H-pyrazol-4-yl)carbamoyl]-2′,3′-dihydrospiro[cyclopropane-1,1′-inden]-2-yl}carbonyl)amino]phenyl}butanoic acid]
100 | 4.5 | N#Cc1ccc(CCCC(=O)O)c(NC(=O)[C@@H]2C[C@]23CCOc2ccc(C(=O)Nc4ccccn4)cc23)c1 [Example 2-23, 4-[4-Cyano-2-({[(2′R,4S)-6-(2-pyridinylcarbamoyl)-2,3-dihydrospiro[chromene-4,1′-cyclopropan]-2′-yl]carbonyl}amino)phenyl]butanoic acid]
90 | 3.4 | CC(C)(C)n1cc(NC(=O)c2ccc3c(c2)[C@]2(CCO3)C[C@H]2C(=O)Nc2cc(C#N)ccc2CCCC(=O)O)cn1 [Example 2-39, 4-[4-Cyano-2-({[(2′R,4S)-6-{[1-(2-methyl-2-propanyl)-1H-pyrazol-4-yl]carbamoyl}-2,3-dihydrospiro[chromene-4,1′-cyclopropan]-2′-yl]carbonyl}amino)phenyl]butanoic acid]
87 | 5.7 | N#Cc1ccc(CCCC(=O)O)c(NC(=O)[C@@H]2C[C@]23CCOc2ccc(-c4ncco4)cc23)c1 [Example 10-3, 4-[4-Cyano-2-({[(2′R,4S)-6-(1,3-oxazol-2-yl)-2,3-dihydrospiro[chromene-4,1′-cyclopropan]-2′-yl]carbonyl}amino)phenyl]butanoic acid]
100 | 3 | COCCNC(=O)c1ccc2c(c1)[C@]1(CC2)C[C@H]1C(=O)Nc1cc(C#N)ccc1CCCC(=O)O [Example 18-2, 4-{4-Cyano-2-[({(1R,2R)-6′-[(2-methoxyethyl)carbamoyl]-2′,3′-dihydrospiro[cyclopropane-1,1′-inden]-2-yl}carbonyl)amino]phenyl}butanoic acid]
80 | 2.8 | Cc1noc(-c2ccc3c(c2)[C@]2(CCO3)C[C@H]2C(=O)Nc2cc(C#N)ccc2CCCC(=O)O)n1 [Example 5, 4-[4-Cyano-2-({[(2′R,4S)-6-(3-methyl-1,2,4-oxadiazol-5-yl)-2,3-dihydrospiro[chromene-4,1′-cyclopropan]-2′-yl]carbonyl}amino)phenyl]butanoic acid]
77 | 7.2 | CNC(=O)c1ccc2c(c1)[C@]1(CO2)C[C@H]1C(=O)Nc1cc(C#N)ccc1CCCC(=O)O [Example 37-1, 4-[4-Cyano-2-({[(2′R,3S)-5-(methylcarbamoyl)spiro[1-benzofuran-3,1′-cyclopropan]-2′-yl]carbonyl}amino)phenyl]butanoic acid]
77 | 1.6 | COCCNC(=O)c1cc2c(cc1F)OCC[C@]21C[C@H]1C(=O)Nc1cc(C#N)ccc1CCCC(=O)O [Example 20-2, 4-{4-Cyano-2-[({(2′R,4S)-7-fluoro-6-[(2-methoxyethyl)carbamoyl]-2,3-dihydrospiro[chromene-4,1′-cyclopropan]-2′-yl}carbonyl)amino]phenyl}butanoic acid]
76 | 10 | CNc1ccc(-c2ccc3c(c2)[C@]2(CCO3)C[C@H]2C(=O)Nc2cc(C#N)ccc2CCCC(=O)O)cn1 [Example 7-21, 4-{4-Cyano-2-[({(2′R,4S)-6-[6-(methylamino)-3-pyridinyl]-2,3-dihydrospiro[chromene-4,1′-cyclopropan]-2′-yl}carbonyl)amino]phenyl}butanoic acid]
96 | 4.5 | N#Cc1ccc(CCCC(=O)O)c(NC(=O)[C@@H]2C[C@]23CCOc2ccc(C(=O)NC4CCCC4)cc23)c1 [Example 2-14, 4-[4 Cyano 2-({[(2′R,4S)-6-(cyclopentylcarbamoyl)-2,3-dihydrospiro[chromene-4,1′-cyclopropan]-2′-yl]carbonyl}amino)phenyl]butanoic acid]
100 | 3.6 | Cn1nccc1NC(=O)c1ccc2c(c1)[C@]1(CCO2)C[C@H]1C(=O)Nc1cc(C#N)ccc1CCCC(=O)O [Example 2-43, 4-{4-Cyano-2-[({(2′R,4S)-6-[(1-methyl-1H-pyrazol-5-yl)carbamoyl]-2,3-dihydrospiro[chromene-4,1′-cyclopropan]-2′-yl}carbonyl)amino]phenyl}butanoic acid]
89 | 9.7 | CN1CC[C@H](NC(=O)c2ccc3c(c2)[C@]2(CCO3)C[C@H]2C(=O)Nc2cc(C#N)ccc2CCCC(=O)O)C1 [Example 2-33, 4-[4-Cyano-2-({[(2′R,4S)-6-{[(3S)-1-methyl-3-pyrrolidinyl]carbamoyl}-2,3-dihydrospiro[chromene-4,1′-cyclopropan]-2′-yl]carbonyl}amino)phenyl]butanoic acid]
91 | 6.4 | CNC(=O)c1ccc2c(c1)OCC[C@]21C[C@H]1C(=O)Nc1cc(C#N)ccc1CCCC(=O)O [Example 28-1, 4-[4-Cyano-2-({[(2′R,4S)-7-(methylcarbamoyl)-2,3-dihydrospiro[chromene-4,1′-cyclopropan]-2′-yl]carbonyl}amino)phenyl]butanoic acid]
80 | 2.5 | N#Cc1ccc(CCCC(=O)O)c(NC(=O)[C@@H]2C[C@]23CCOc2ccc(C(=O)Nc4cccnn4)cc23)c1 [Example 2-29, 4-[4-Cyano-2-({[(2′R,4S)-6-(3-pyridazinylcarbamoyl)-2,3-dihydrospiro[chromene-4,1′-cyclopropan]-2′-yl]carbonyl}amino)phenyl]butanoic acid]
100 | 2.5 | CCCNC(=O)c1ccc2c(c1)[C@]1(CCO2)C[C@H]1C(=O)Nc1cc(C#N)ccc1CCCC(=O)O [Example 2-44, 4-[4-Cyano-2-({[(2′R,4S)-6-(propylcarbamoyl)-2,3-dihydrospiro[chromene-4,1′-cyclopropan]-2′-yl]carbonyl}amino)phenyl]butanoic acid]
71 | 2.4 | N#Cc1ccc(CCCC(=O)O)c(NC(=O)[C@@H]2C[C@]23CCOc2ccc(-n4cccn4)cc23)c1 [Example 7-4, 4-[4-Cyano-2-({[(2′R,4S)-6-(1H-pyrazol-1-yl)-2,3-dihydrospiro[chromene-4,1′-cyclopropan]-2′-yl]carbonyl}amino)phenyl]butanoic acid]
92 | 4.5 | Cn1ccc(NC(=O)c2ccc3c(c2)[C@]2(CCO3)C[C@H]2C(=O)Nc2cc(C#N)ccc2CCCC(=O)O)n1 [Example 2-9, 4-{4-Cyano-2-[({(2′R,4S)-6-[(1-methyl-1H-pyrazol-yl)carbamoyl]-2,3-dihydrospiro[chromene-4,1′-cyclopropan]-2′-yl}carbonyl)amino]phenyl}butanoic acid]
100 | 3.4 | N#Cc1ccc(CCCC(=O)O)c(NC(=O)[C@@H]2C[C@]23CCOc2ccc(C(=O)Nc4ccno4)cc23)c1 [Example 2-41, 4-[4-Cyano-2-({[(2′R,4S)-6-(1,2-oxazol-5-ylcarbamoyl)-2,3-dihydrospiro[chromene-4,1′-cyclopropan]-2′-yl]carbonyl}amino)phenyl]butanoic acid]
